Results: ChEMBL document CHEMBL1142807, “Diprolyl nitriles as potent dipeptidyl peptidase IV inhibitors” (Bioorg Med Chem Lett, 2005)

assay: Inhibitory activity against Dipeptidyl peptidase IV

| Ki | Compound |
| --- | --- |
| 39 nM | N#C[C@@H]1C[C@@H]2C[C@@H]2N1C(=O)[C@@H]1C[C@H](NS(=O)(=O)c2ccc(Cl)cc2)CN1 |
| 290 nM | CC[C@H]1CCN[C@@H]1C(=O)N1[C@H](C#N)C[C@@H]2C[C@@H]21 |
| > 10000 nM | N#C[C@@H]1C[C@@H]2C[C@@H]2N1C(=O)[C@@H]1CCCCN1 |
| 126 nM | C[C@H]1CCN[C@@H]1C(=O)N1[C@H](C#N)C[C@@H]2C[C@@H]21 |
| 133 nM | CC(C)(C)CC(=O)N[C@@H]1CN[C@H](C(=O)N2[C@H](C#N)C[C@@H]3C[C@@H]32)C1 |
| 37 nM | CC1(C)CCN[C@@H]1C(=O)N1[C@H](C#N)C[C@@H]2C[C@@H]21 |
| 305 nM | N#C[C@@H]1C[C@@H]2C[C@@H]2N1C(=O)[C@@H]1CCCN1 |
| 57 nM | N#C[C@@H]1C[C@@H]2C[C@@H]2N1C(=O)[C@@H]1C[C@H](NC(=O)OCC2c3ccccc3-c3ccccc32)CN1 |
| 140 nM | CC(C)(C)OC(=O)N[C@@H]1CN[C@H](C(=O)N2[C@H](C#N)C[C@@H]3C[C@@H]32)C1 |
| > 10000 nM | N#C[C@@H]1C[C@@H]2C[C@@H]2N1C(=O)[C@H]1CCCN1 |
| > 10000 nM | N#C[C@@H]1C[C@@H]2C[C@@H]2N1C(=O)[C@@H]1CCN1 |
| 492 nM | CC(C)(C)OC(=O)NC1CN[C@H](C(=O)N2[C@H](C#N)C[C@@H]3C[C@@H]32)C1 (single isomer, unassigned) |

| Compound | Ki |
| --- | --- |
| N#C[C@@H]1C[C@@H]2C[C@@H]2N1C(=O)[C@H]1NC[C@@H]2C[C@@H]21 | 52 nM |
| N#C[C@@H]1C[C@@H]2C[C@@H]2N1C(=O)[C@@H]1C[C@@H]2C[C@@H]2N1 | > 10000 nM |

assay: Half Life at 37 degree C and 10 uM in pH 7.0 buffer; format: ADME

| Compound | half-life at 10 µM |
| --- | --- |
| N#Cc1ccc(NC2CN[C@H](C(=O)N3[C@H](C#N)C[C@@H]4C[C@@H]43)C2)cc1Cl (stereo not given in full) | 15 h |
